Data from the NIST ThermoML archive (doi:10.1016/j.jct.2009.05.006).

How the values were obtained:
[1] = excess molar enthalpy (molar enthalpy of mixing); xn = mol fraction of the nth substance listed; conditions: 298.15 K, 101 kPa, Liquid, Calvet calorimetry
[2] = xn = mol fraction of the nth substance listed; conditions: 298.15 K, 101 kPa, Liquid, Vibrating tube method

BrCCBr [1,2-dibromoethane] + CCCCOC(=O)CC
[1]
Conditions | excess molar enthalpy [kcal/mol]
x2 = 0.0417 | 0.00526
x2 = 0.0966 | 0.00741
x2 = 0.1618 | 0.00621
x2 = 0.2302 | 0.00191
x2 = 0.2936 | -0.00478
x2 = 0.3529 | -0.012
x2 = 0.4091 | -0.0179
x2 = 0.4511 | -0.022
x2 = 0.4917 | -0.0241
x2 = 0.5694 | -0.0265
x2 = 0.6594 | -0.0263
x2 = 0.7605 | -0.0229
x2 = 0.8773 | -0.0151

BrCCBr [1,2-dibromoethane] + CCCCOC(C)=O
[1]
Conditions | excess molar enthalpy [kcal/mol]
x2 = 0.0399 | -0.000239
x2 = 0.0964 | -0.000717
x2 = 0.1625 | -0.00382
x2 = 0.2339 | -0.0103
x2 = 0.3039 | -0.0174
x2 = 0.3717 | -0.0246
x2 = 0.4237 | -0.0308
x2 = 0.4749 | -0.0351
x2 = 0.5228 | -0.0363
x2 = 0.5985 | -0.0366
x2 = 0.6854 | -0.0332
x2 = 0.7854 | -0.0277
x2 = 0.8989 | -0.0148

BrCCBr [1,2-dibromoethane] + CCCCOC=O
Conditions | excess molar enthalpy, [1] [kcal/mol] | mass density, [2] [kg/m3]
x2 = 0.0489 | – | 2085.1
x2 = 0.0509 | 0.0098 | –
x2 = 0.0955 | – | 2008.94
x2 = 0.1197 | 0.0186 | –
x2 = 0.1401 | – | 1938.46
x2 = 0.1884 | – | 1864.18
x2 = 0.1992 | 0.027 | –
x2 = 0.2379 | – | 1790.7
x2 = 0.28 | 0.032 | –
x2 = 0.3095 | – | 1688.13
x2 = 0.3398 | – | 1646.07
x2 = 0.3511 | 0.0332 | –
x2 = 0.3993 | 0.0327 | 1565.68
x2 = 0.449 | 0.0315 | –
x2 = 0.4831 | 0.0299 | –
x2 = 0.5112 | – | 1422.24
x2 = 0.5504 | 0.027 | –
x2 = 0.5786 | – | 1340.18
x2 = 0.6334 | 0.022 | –
x2 = 0.641 | – | 1266.85
x2 = 0.7029 | – | 1196.55
x2 = 0.7275 | 0.016 | –
x2 = 0.7738 | – | 1118.89
x2 = 0.8087 | 0.0105 | –
x2 = 0.8358 | – | 1053.24
x2 = 0.9111 | 0.00406 | –
x2 = 0.9138 | – | 973.46

BrCCCBr [1,3-dibromopropane] + CCCCOC(=O)CC
[1]
Conditions | excess molar enthalpy [kcal/mol]
x2 = 0.045 | 0.00765
x2 = 0.1122 | 0.0124
x2 = 0.1829 | 0.0129
x2 = 0.2541 | 0.00908
x2 = 0.3191 | 0.00215
x2 = 0.3797 | -0.00813
x2 = 0.4331 | -0.0151
x2 = 0.4438 | -0.017
x2 = 0.5107 | -0.0229
x2 = 0.5886 | -0.0261
x2 = 0.6793 | -0.0263
x2 = 0.7807 | -0.022
x2 = 0.8921 | -0.0131

BrCCCBr [1,3-dibromopropane] + CCCCOC(C)=O
[1]
Conditions | excess molar enthalpy [kcal/mol]
x2 = 0.0548 | 0.00191
x2 = 0.1295 | 0.00287
x2 = 0.2133 | 0.00191
x2 = 0.2909 | -0.00167
x2 = 0.3612 | -0.0086
x2 = 0.424 | -0.017
x2 = 0.4792 | -0.0251
x2 = 0.5321 | -0.0289
x2 = 0.6141 | -0.0296
x2 = 0.7077 | -0.0277
x2 = 0.808 | -0.0217
x2 = 0.9143 | -0.0131

BrCCCBr [1,3-dibromopropane] + CCCCOC=O
Conditions | excess molar enthalpy [kcal/mol] | mass density [kg/m3]
[1], x2 = 0.0631 | 0.0155 | –
[1], x2 = 0.1489 | 0.0306 | –
[1], x2 = 0.2355 | 0.0397 | –
[1], x2 = 0.3208 | 0.0435 | –
[1], x2 = 0.3958 | 0.0428 | –
[1], x2 = 0.4589 | 0.0409 | –
[1], x2 = 0.5144 | 0.0378 | –
[1], x2 = 0.5498 | 0.0356 | –
[1], x2 = 0.5621 | 0.0344 | –
[1], x2 = 0.6372 | 0.0289 | –
[1], x2 = 0.7237 | 0.0227 | –
[1], x2 = 0.8208 | 0.0143 | –
[1], x2 = 0.9151 | 0.00693 | –
[2], x2 = 0.055 | – | 1904.29
[2], x2 = 0.1095 | – | 1839
[2], x2 = 0.1626 | – | 1776.37
[2], x2 = 0.2171 | – | 1712.74
[2], x2 = 0.273 | – | 1648.68
[2], x2 = 0.3252 | – | 1589.49
[2], x2 = 0.5003 | – | 1397.08
[2], x2 = 0.5617 | – | 1331.4
[2], x2 = 0.6186 | – | 1271.46
[2], x2 = 0.6866 | – | 1200.91
[2], x2 = 0.8026 | – | 1082.84
[2], x2 = 0.8655 | – | 1020.08
[2], x2 = 0.9344 | – | 952.37

BrCCCCBr [1,4-dibromobutane] + CCCCOC(=O)CC
Conditions | excess molar enthalpy [kcal/mol] | mass density [kg/m3]
[1], x2 = 0.0509 | 0.00574 | –
[1], x2 = 0.1183 | 0.00621 | –
[1], x2 = 0.196 | 0.00287 | –
[1], x2 = 0.275 | -0.00239 | –
[1], x2 = 0.3518 | -0.00765 | –
[1], x2 = 0.4473 | -0.0131 | –
[1], x2 = 0.4843 | -0.0151 | –
[1], x2 = 0.5517 | -0.0163 | –
[1], x2 = 0.6323 | -0.017 | –
[1], x2 = 0.7319 | -0.016 | –
[1], x2 = 0.8302 | -0.0124 | –
[1], x2 = 0.9193 | -0.0086 | –
[2], x1 = 0.0993 | – | 1702.4
[2], x1 = 0.1484 | – | 1647.38
[2], x1 = 0.2006 | – | 1590.44
[2], x1 = 0.2485 | – | 1539.57
[2], x1 = 0.307 | – | 1478.88
[2], x1 = 0.3593 | – | 1426.19
[2], x1 = 0.4138 | – | 1372.46
[2], x1 = 0.4767 | – | 1312.32
[2], x1 = 0.5324 | – | 1260.38
[2], x1 = 0.5968 | – | 1201.95
[2], x1 = 0.6549 | – | 1150.66
[2], x1 = 0.721 | – | 1093.83
[2], x1 = 0.787 | – | 1038.79
[2], x1 = 0.8544 | – | 984.01
[2], x1 = 0.9302 | – | 924.33

BrCCCCBr [1,4-dibromobutane] + CCCCOC(C)=O
Conditions | excess molar enthalpy [kcal/mol] | mass density [kg/m3]
[1], x2 = 0.0576 | 0.00335 | –
[1], x2 = 0.135 | 0.00574 | –
[1], x2 = 0.2211 | 0.00621 | –
[1], x2 = 0.3056 | 0.00359 | –
[1], x2 = 0.3729 | -0.000956 | –
[1], x2 = 0.4291 | -0.00621 | –
[1], x2 = 0.4798 | -0.0124 | –
[1], x2 = 0.4866 | -0.0158 | –
[1], x2 = 0.5277 | -0.0186 | –
[1], x2 = 0.5406 | -0.021 | –
[1], x2 = 0.603 | -0.0234 | –
[1], x2 = 0.6715 | -0.0237 | –
[1], x2 = 0.7464 | -0.0222 | –
[1], x2 = 0.8416 | -0.0155 | –
[1], x2 = 0.9307 | -0.00717 | –
[2], x1 = 0.06 | – | 1754.15
[2], x1 = 0.1131 | – | 1699.34
[2], x1 = 0.1633 | – | 1648.18
[2], x1 = 0.2229 | – | 1588.24
[2], x1 = 0.2748 | – | 1536.73
[2], x1 = 0.3886 | – | 1426
[2], x1 = 0.4426 | – | 1374.38
[2], x1 = 0.5 | – | 1320.28
[2], x1 = 0.6216 | – | 1207.87
[2], x1 = 0.6806 | – | 1154.38
[2], x1 = 0.8076 | – | 1041.44
[2], x1 = 0.8633 | – | 992.97
[2], x1 = 0.9298 | – | 935.67

BrCCCCBr [1,4-dibromobutane] + CCCCOC=O
Conditions | excess molar enthalpy [kcal/mol] | mass density [kg/m3]
[1], x2 = 0.0646 | 0.0177 | –
[1], x2 = 0.1478 | 0.0315 | –
[1], x2 = 0.2392 | 0.0423 | –
[1], x2 = 0.3291 | 0.0488 | –
[1], x2 = 0.4058 | 0.0504 | –
[1], x2 = 0.4726 | 0.0488 | –
[1], x2 = 0.5295 | 0.0466 | –
[1], x2 = 0.5817 | 0.0435 | –
[1], x2 = 0.6425 | 0.0387 | –
[1], x2 = 0.7078 | 0.033 | –
[1], x2 = 0.7787 | 0.0253 | –
[1], x2 = 0.8648 | 0.0165 | –
[1], x2 = 0.9404 | 0.00669 | –
[2], x2 = 0.0702 | – | 1756.08
[2], x2 = 0.1221 | – | 1708.91
[2], x2 = 0.1836 | – | 1652.89
[2], x2 = 0.241 | – | 1600.45
[2], x2 = 0.3018 | – | 1544.61
[2], x2 = 0.4249 | – | 1431.07
[2], x2 = 0.4765 | – | 1383.26
[2], x2 = 0.5374 | – | 1326.55
[2], x2 = 0.6529 | – | 1218.52
[2], x2 = 0.7677 | – | 1110.31
[2], x2 = 0.8248 | – | 1056.19
[2], x2 = 0.8824 | – | 1001.42
[2], x2 = 0.9353 | – | 950.88
